Measurements: patent publication US6416783B1, “Aspartic and malic acid inhibition of ss-glucuronidase” (Wisconsin Alumni Research Foundation, priority 1999, dated 2002)
Where “and” joins values, the source holds several entries; their conditions need not be identical. Equal entries are not always repeated. Entries after “also recorded” stand apart in the source; their conditions may differ. Where two headings read alike, the source gives them in different places.

Molecular target: T1, β-glucuronidase (Homo sapiens, UniProt P08236)
T1 construct: We used human breast milk collected and pooled from a newborn nursery as the β-glucuronidase source; from tissue
T1 sequence (P08236 23-651): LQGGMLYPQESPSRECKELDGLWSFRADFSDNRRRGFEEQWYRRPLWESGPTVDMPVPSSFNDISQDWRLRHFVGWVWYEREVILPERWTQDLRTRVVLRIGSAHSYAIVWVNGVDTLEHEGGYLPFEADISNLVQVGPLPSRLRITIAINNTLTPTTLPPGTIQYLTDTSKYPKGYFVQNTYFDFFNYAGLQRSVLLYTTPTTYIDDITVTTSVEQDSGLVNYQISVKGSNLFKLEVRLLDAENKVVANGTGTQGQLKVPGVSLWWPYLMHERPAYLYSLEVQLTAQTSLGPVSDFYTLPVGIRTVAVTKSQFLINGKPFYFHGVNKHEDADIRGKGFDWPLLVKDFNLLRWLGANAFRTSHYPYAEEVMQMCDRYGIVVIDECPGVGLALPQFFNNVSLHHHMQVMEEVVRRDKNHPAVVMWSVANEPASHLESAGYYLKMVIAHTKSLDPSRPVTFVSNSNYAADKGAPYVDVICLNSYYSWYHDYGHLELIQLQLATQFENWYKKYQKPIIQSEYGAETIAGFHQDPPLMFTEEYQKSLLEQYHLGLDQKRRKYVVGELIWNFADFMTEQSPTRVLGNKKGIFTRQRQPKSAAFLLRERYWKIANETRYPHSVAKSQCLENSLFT
Test: Standard Test: β-glucuronidase activity of human breast milk with MUG substrate (fluorescence)
Type: biochemical
Settings: for mean (X̄) activity / X (mean activity): mean of 3; for Activity (pmole/tube/hr) / β-glucuronidase activity (row unlabelled): single replicates; for concentration with significant β-glucuronidase inhibitory activity: tested 10 to 10,000 μM; for X (mean activity) / β-glucuronidase activity (row unlabelled): in pmol/tube/h
Experimental: We first developed a standard assay procedure (the “Standard Test”). We used human breast milk collected and pooled from a newborn nursery as the β-glucuronidase source. The samples were stored at −20° C. The milk was thawed and diluted 10× with 0.2 M sodium acetate/glacial acetic acid (NaAC) buffer pH 4.5 just prior to being used. A 4.0 mM stock solution of 4-methylumbelliferyl β-D-glucuronide (MUG, Sigma M-9130 lot#75H3777) was prepared in 0.2 M NaAC buffer pH 4.5.
Triplicate test and blank tubes contained a reaction mixture consisting of 50 μL diluted breast milk and 50 μL of an inhibitor solution diluted with 0.2 M NaAC buffer pH 4.5. Controls were prepared that contained only 50 μL diluted breast milk and 50 μL 0.2 M NaAC buffer pH 4.5. The assay was started by adding 25 μl of the MUG (4.0 mM, 0.800 mM final concentration) to the test sample to start the reaction. The final volume of the reaction was 125 μL. Both blank and test samples were vortexed and incubated at 37° C. for 1 hour (or for shorter times if indicated).
The reaction was quenched in both the test and blank samples with 3.0 ml of glycine-carbonate (320 mM: 200 mM) buffer pH 10.0. The blank samples had 25 μl of the MUG (4.0 mM, 0.800 mM final) added to them and all tubes were vortexed.
The resulting fluorescence was read using a Perkin Elmer LS5-B fluorescence spectrophotometer (360 nm excitation, 445 nm emission, autorange scale). The amount of 4-methylumbelliferone (4-MU) released by the β-glucuronidase was calculated using a 4-MU quadratic standard curve and the Mathplot software. The velocity was calculated as pmoles of 4-MU formed per hour per ml undiluted breast milk.
We diluted pooled breast milk 20× with 0.2 M NaAC buffer pH 4.5. We diluted 2.2% w/v solution of Amicase (Sigma Cat. #A2427—a mixture of free amino acids with virtually no unhydrolyzed peptides, only minimal inorganic components are present, total nitrogen ˜12.8%, amino nitrogen ˜9.8%) with buffer 5×. We then incubated 50 μl milk with 50 μl buffer and Amicase. We then added 25 μl MUG to start the reaction. We then quenched with Na-carbonate buffer pH 10.0 and read fluorescence at 360 nm ex 445 nm em. Autorange scale. The mixture of amino acids was compared to controls and Nutramigen® as follows:
We then studied the effect of specific amino acid mixtures on β-glucuronidase activity. We diluted pooled breast milk 10× with 0.2 M NaAC buffer pH 4.5 and diluted 50×stock essential amino acid solution (Sigma Cat #M7020=L-arginine.HCl 6.32 g/L, L-cystine 1.2 g/L, L-histidine.HCl.H20 2.1 g/L, L-isoleucine 2.625 g/L, L-leucine 2.62 g/L, L-lyscine.HCl 3.625 g/L, L-methionine 0.755 g/L, L-phenylalanine 1.65 g/L, L-threonine 2.38 g/L, L-tryptophane 0.51 g/L, L-tyrosine 1.8 g/L, L-valine 2.34 g/L).
We also used a non-essential AA solution=Sigma Cat #M7145=L-alanine HCl 0.89 g/L, L-asparagine.H20 1.50 g/L, L-aspartic acid 1.33 g/L, L-glutamic acid 1.47 g/L, glycine 0.75 g/L, L-proline 1.15 g/L, L-serine 1.05 g/L.
We 5×diluted 100×stock essential AA solution. We incubated 50 μl diluted milk with 50 μl buffer (control), or the essential AA solution, or the non-essential AA solution, or Nutramigen® RTU, added 25 μl MUG to start the reaction, quenched with Na-carbonate buffer, and read fluorescence (360 nm excitation: 445 nm emission). The results are as follows:
We then analyzed inhibitory effect of each of the seven amino acids in the non-essential amino acid mixture. We diluted pooled breast milk 10× with 0.2 M NaAC buffer pH 4.5, and diluted Nutramigen® RTU (N) and Nutramigen® lipid-free supernatant (LFS) 5 fold with 0.2 M NaAC buffer pH 4.5.
We prepared stock solutions of each of the non-essential amino acids L-alanine (Ala), L-asparagine (Asn), L-aspartic acid (Asp), L-glutamic acid (Glu), glycine (Gly), L-proline (Pro), and L-Serine (Ser). All solutions were at pH 4.5. The final concentration of each amino acid in the assay was the same as when the amino acids were analyzed as a mixture. […]

[1] = Example 5, Conc. 10 μm, read-out: % (activity relative to control)
[2] = Example 5, Conc. 100 μm, read-out: % (activity relative to control)
[3] = Example 5, Conc. 1,000 μm, read-out: % (activity relative to control)
[4] = Example 5, Conc. 10,000 μm, read-out: % (activity relative to control)

Structure (SMILES): C[C@H](N)C(=O)O [Ala, L-alanine]
- remaining activity at 35.6 µg/mL (Example 3, 35.6 μg/ml, read-out: % (activity relative to control)): 99.5%
- mean (X̄) activity (Example 3, 35.6 μg/ml): 671.0 pmole/tube/hr
- Activity (pmole/tube/hr) (Example 3, 35.6 μg/ml): 686.2 pmole/tube/hr and 670.9 pmole/tube/hr and 656.0 pmole/tube/hr

Structure (SMILES): NC(=O)C[C@H](N)C(=O)O [Asn, L-asparagine]
- remaining activity at 61.4 µg/mL (Example 3, 61.4 μg/ml, read-out: % (activity relative to control)): 97.8%
- mean (X̄) activity (Example 3, 61.4 μg/ml): 659.2 pmole/tube/hr
- Activity (pmole/tube/hr) (Example 3, 61.4 μg/ml): 663.2 pmole/tube/hr and 667.6 pmole/tube/hr and 646.7 pmole/tube/hr

Structure (SMILES): N[C@@H](CC(=O)O)C(=O)O [Asp, L-aspartic acid]
- effect on β-glucuronidase activity (in words): significantly inhibit β-glucuronidase; also recorded: significant β-glucuronidase inhibitory activity
- remaining activity at 53.2 µg/mL (Example 3, 53.2 μg/ml, read-out: % (activity relative to control)): 73.7%
- mean (X̄) activity (Example 3, 53.2 μg/ml): 496.5 pmole/tube/hr
- Activity (pmole/tube/hr) (Example 3, 53.2 μg/ml): 494.8 pmole/tube/hr and 500.8 pmole/tube/hr and 493.9 pmole/tube/hr
- potency in β-glucuronidase inhibition relative to D-aspartic acid (Example 5): approximately 100 times
- remaining activity at 10 µM [1]: 97.4%
- remaining activity at 100 µM [2]: 89.3%
- remaining activity at 1000 µM [3]: 53%
- remaining activity at 10000 µM [4]: 8.4%
- mean (X̄) activity (Example 5, Conc. 10 μm): 693.9 pmole/tube/hr
- mean (X̄) activity (Example 5, Conc. 100 μm): 636.4 pmole/tube/hr
- mean (X̄) activity (Example 5, Conc. 1,000 μm): 377.5 pmole/tube/hr
- mean (X̄) activity (Example 5, Conc. 10,000 μm): 60.2 pmole/tube/hr
- Activity (pmole/tube/hr) (Example 5, Conc. 10 μm): 692.5 pmole/tube/hr and 705.8 pmole/tube/hr and 683.2 pmole/tube/hr
- Activity (pmole/tube/hr) (Example 5, Conc. 100 μm): 641.0 pmole/tube/hr and 640.1 pmole/tube/hr and 628.0 pmole/tube/hr
- Activity (pmole/tube/hr) (Example 5, Conc. 1,000 μm): 405.5 pmole/tube/hr and 378.0 pmole/tube/hr and 349.1 pmole/tube/hr
- Activity (pmole/tube/hr) (Example 5, Conc. 10,000 μm): 62.7 pmole/tube/hr and 59.2 pmole/tube/hr and 58.6 pmole/tube/hr
- concentration with significant β-glucuronidase inhibitory activity (Example 5): > 10 µM
- pH of maximum inhibition of β-glucuronidase (pH experiments): ~5

Structure (SMILES): N[C@H](CC(=O)O)C(=O)O [D-asp, D-aspartic acid]
- remaining activity at 10 µM [1]: 98.4%
- remaining activity at 100 µM [2]: 97.5%
- remaining activity at 1000 µM [3]: 98.1%
- remaining activity at 10000 µM [4]: 86.2%
- mean (X̄) activity (Example 5, Conc. 10 μm): 701.0 pmole/tube/hr
- mean (X̄) activity (Example 5, Conc. 100 μm): 694.8 pmole/tube/hr
- mean (X̄) activity (Example 5, Conc. 1,000 μm): 699.2 pmole/tube/hr
- mean (X̄) activity (Example 5, Conc. 10,000 μm): 614.7 pmole/tube/hr
- Activity (pmole/tube/hr) (Example 5, Conc. 10 μm): 706.2 pmole/tube/hr and 705.1 pmole/tube/hr and 691.7 pmole/tube/hr
- Activity (pmole/tube/hr) (Example 5, Conc. 100 μm): 692.3 pmole/tube/hr and 709.8 pmole/tube/hr and 682.1 pmole/tube/hr
- Activity (pmole/tube/hr) (Example 5, Conc. 1,000 μm): 704.2 pmole/tube/hr and 702.3 pmole/tube/hr and 691.2 pmole/tube/hr
- Activity (pmole/tube/hr) (Example 5, Conc. 10,000 μm): 626.2 pmole/tube/hr and 614.9 pmole/tube/hr and 602.9 pmole/tube/hr
- concentration with significant β-glucuronidase inhibitory activity (Example 5): 10,000 μM

Structure (SMILES): O=C[C@H](O)[C@@H](O)[C@@H](O)[C@H](O)CO [D-gal, D(+)galactose]
- remaining activity at 100 µM (Example 4, 0.1 mM, read-out: % (activity relative to control)): 99.1%
- remaining activity at 1000 µM (Example 4, 1 mM, read-out: % (activity relative to control)): 99.2%
- remaining activity at 10000 µM (Example 4, 10 mM, read-out: % (activity relative to control)): 99.2%
- β-glucuronidase activity, % (of control) (Example 4, 0.1, 1, 10 mM): 99%
- X (mean activity) (Example 4, 0.1 mM): 820.2
- X (mean activity) (Example 4, 1 mM): 812.2
- X (mean activity) (Example 4, 10 mM): 820.5
- β-glucuronidase activity (row unlabelled) (Example 4, 0.1 mM): 816.8 and 812.8 and 830.9
- β-glucuronidase activity (row unlabelled) (Example 4, 1 mM): 825.6 and 808.7 and 802.5
- β-glucuronidase activity (row unlabelled) (Example 4, 10 mM): 806.6 and 833.7 and 821.3

Structure (SMILES): N[C@@H](CCC(=O)O)C(=O)O [Glu, L-glutamic acid]
- mean (X̄) activity (Example 3, 58.8 μg/ml): 660.0 pmole/tube/hr
- Activity (pmole/tube/hr) (Example 3, 58.8 μg/ml): 658.8 pmole/tube/hr and 657.5 pmole/tube/hr and 663.7 pmole/tube/hr
- remaining activity at 58.8 µg/mL (read-out: % (activity relative to control)): 97.9%

Structure (SMILES): NCC(=O)O [Gly, glycine]
- remaining activity at 30 µg/mL (Example 3, 30.0 μg/ml, read-out: % (activity relative to control)): 102%
- mean (X̄) activity (Example 3, 30.0 μg/ml): 685.5 pmole/tube/hr
- Activity (pmole/tube/hr) (Example 3, 30.0 μg/ml): 674.7 pmole/tube/hr and 695.4 pmole/tube/hr and 686.5 pmole/tube/hr

Structure (SMILES): O=C(O)C[C@H](O)C(=O)O [L-malic acid]
- effect on β-glucuronidase activity (in words): significantly inhibit β-glucuronidase; also recorded: contributed to the inhibition of β-glucuronidase at similar concentrations to L-aspartic acid
